# In patent US6617337B1, “Use of nitroxides for the treatment of essential hypertension” (Georgetown University, priority 1997, dated 2003):
# What was measured:
# Type in all cases: in vivo, rat
# SHR [1] = experiment: TGF response to SNAP microperfused into the macula densa during Tempol microperfusion via the efferent arteriole
# Text: Two additional microperfusion studies were undertaken to assess the mechanism of Tempol action in SHR. […] A dose of 10^−6 M […] (SNAP), a NO donor compound, was microperfused into the macula densa of the rats. […] Other NO donor compounds include nitroprusside and nitrates.
# SHR and WKY rats [2] = experiment: Maximal TGF responses during orthograde microperfusion of L-arginine (Series 5); conditions: for PSF difference 0-40 nl·min^−1 (maximal TGF response) / PSF during LH perfusion at 0 nl·min^−1 / PSF during LH perfusion at 40 nl·min^−1: ATF+L-arginine 10^−3 M, mean ± SEM
# Experimental: (§1) Series 4. Effects of inhibition of bNOS on maximal TGF responses in SHR and WKY. These experiments further examined the SHR hypertension model and whether the enhanced TGF of the SHR kidney is due to a blunted generation of NO by bNOS in the macula densa or whether NOS inhibition is diminished in the SHR model. Groups of SHR and age-matched WKY rats were prepared for in vivo micropuncture, microperfusion, and TGF studies as described in detail previously. In brief, animals were anesthetized with thiobarbital (Inactin, 100 mg·kg^−1; Research Biochemicals, Inc., Natick, Mass.). A catheter was placed in a jugular vein for fluid infusion and in a femoral artery for recording of mean arterial pressure (MAP) from the electrically damped output of a pressure transducer (Statham, Inc.). A tracheotomy tube was inserted and the animals were allowed to breathe spontaneously. The left kidney was exposed by a flank incision, cleaned of connective tissue, and stabilized in a Lucite cup. This kidney was bathed in 0.154 M NaCl maintained at 37° C. After completion of surgery, rats were infused with a solution of 0.154 M NaCl and 1% albumin at 1.5 ml·h^−1 to maintain a euvolemic state. Micropuncture studies were begun after 60 min for stabilization.
# (§2) For orthograde microperfusion of the loop of Henle (LH), a micropipette (8 μm OD) containing artificial tubular fluid (ATF) stained with FD&C dye was inserted into a late proximal tubule. Injections of the colored ATF identified the nephron and the direction of flow. An immobile bone wax block was inserted into this micropuncture site via a micropipette (10-15 μm) and connected to a hydraulic drive (Trent Wells, Inc., LaJolla, Calif.) to halt tubular fluid flow. A perfusion micropipette (6-8 μm) containing ATF and test compounds or vehicle was inserted into the proximal tubule downstream from the wax block and connected to a nanoliter perfusion pump (WPI, Sarasota, Fla.). A pressure micropipette (1-2 μm) was inserted into the proximal tubule upstream from the wax block to measure proximal stop flow pressure (PSF). Changes in PSF are an index of changes in glomerular capillary hydraulic pressure (PGC). Measurements of PSF were made in each nephron during zero loop perfusion and during perfusion with ATF at 40 nl·min^−1, which produces a maximal TGF response, defined as the difference between PSF values recorded during perfusion of the loop with ATF at 0 and 40 nl·min^−1.
# Series 5: Maximal TGF responses during microperfusion of L-arginine in SHR and WKY. L-arginine had previously been shown not to lower blood pressure or the glomerular filtration rate in the SHR model. However, L-arginine can restore a TGF response to NOS blockade in tested rats adapted to low salt intake. Therefore, the role of L-arginine was tested in the SHR model. This series examined the effect of a reduced delivery of L-arginine to the macula densa on NO generation, as assessed in Series 4. Groups of SHR (n=4) and WKY rats (n=3) were prepared for microperfusion. PSF was recorded during orthograde LH perfusion at 0 and 40 nl·min^−1 with ATF+vehicle and ATF+L-arginine (10^−3 M). (Previous studies had shown that this was a maximally effective dose.)
# SHR and WKY rats [3] = experiment: Maximal TGF responses (proximal stop flow pressure) during orthograde loop of Henle microperfusion of 7-NI (Series 4); conditions: for PSF difference 0-40 nl·min^−1 (maximal TGF response) / PSF during LH perfusion at 0 nl·min^−1 / PSF during LH perfusion at 40 nl·min^−1: ATF+7-NI 10^−4 M, mean ± SEM
# Experimental: as §1, §2
# The maximal TGF responses were determined in SHR (n=4) and WKY rats (n=4) to perfusion of the LH with ATF+vehicle and contrasted with the maximal TGF responses during perfusion with ATF+7-nitroindazole (7-NI; 10^−4 M).
# SHR rats = experiment: TGF response to 7-NI microperfused into the macula densa before and during Tempol microperfusion into efferent arterioles
# Text: This also implies that it had normalized the action of NO in this setting, thereby correcting the defect in the NO action in hypertension and restoring normal vascular control. This is filly consistent with its action on a free radical scavenging agent that thereby protects NO from radical attack.
# SHR [4] = experiment: Role of NO in the MAP response to constant Tempol infusion (L-NAME or norepinephrine pretreatment); conditions: for Change in MAP at 50 min (time control): separate group of SHR, NS
compound,measurement,setting,value
"CC(=O)N[C@H](C(=O)O)C(C)(C)SN=O (racemic) [SNAP, 5-nitroacetylpenacillamine]",Blunting of TGF response,"SHR [1]; SNAP 10^−6 M during Tempol 10^−4 M microperfusion via efferent arteriole, p<0.01",more than 25%
same,Effect of SNAP dose alone on TGF,"SHR [1]; SNAP 10^−6 M into macula densa, without Tempol",just subthreshold
N=C(N)NCCC[C@H](N)C(=O)O [L-arginine],PSF difference 0-40 nl·min^−1 (maximal TGF response),SHR and WKY rats [2]; SHR,10.6 ± 0.7 mm Hg
same,PSF during LH perfusion at 0 nl·min^−1,SHR and WKY rats [2]; SHR,41.0 ± 1.2 mm Hg
same,PSF during LH perfusion at 40 nl·min^−1,SHR and WKY rats [2]; SHR,30.4 ± 0.7 mm Hg
same,Effect on TGF responses,"SHR and WKY rats [2]; SHR, L-arginine added to orthograde LH perfusate",no significant effects
same,PSF difference 0-40 nl·min^−1 (maximal TGF response),SHR and WKY rats [2]; WKY,6.3 ± 0.4 mm Hg
same,PSF during LH perfusion at 0 nl·min^−1,SHR and WKY rats [2]; WKY,36.1 ± 0.7 mm Hg
same,PSF during LH perfusion at 40 nl·min^−1,SHR and WKY rats [2]; WKY,29.8 ± 0.5 mm Hg
same,Average blunting of TGF responses,"SHR and WKY rats [2]; WKY, L-arginine added to orthograde LH perfusate",18%
"O=[N+]([O-])c1cccc2cn[nH]c12 [7-NI, 7-nitroindazole]",Effect on TGF responses,"SHR and WKY rats [3]; SHR, 7-NI added to orthograde LH perfusate",no significant effects
same,PSF difference 0-40 nl·min^−1 (maximal TGF response),SHR and WKY rats [3]; SHR,12.5 ± 0.6 mm Hg
same,PSF during LH perfusion at 0 nl·min^−1,SHR and WKY rats [3]; SHR,41.0 ± 1.0 mm Hg
same,PSF during LH perfusion at 40 nl·min^−1,SHR and WKY rats [3]; SHR,29.3 ± 0.7 mm Hg
same,Average increase in maximal TGF response,"SHR and WKY rats [3]; WKY, 7-NI added to orthograde LH perfusate",39%
same,PSF difference 0-40 nl·min^−1 (maximal TGF response),SHR and WKY rats [3]; WKY,13.2 ± 0.7 mm Hg
same,PSF during LH perfusion at 0 nl·min^−1,SHR and WKY rats [3]; WKY,38.1 ± 0.8 mm Hg
same,PSF during LH perfusion at 40 nl·min^−1,SHR and WKY rats [3]; WKY,25.0 ± 1.2 mm Hg
same,Increase in TGF in the presence of 7-NI,SHR rats; 7-NI 10^−4 M during Tempol 10^−4 M microperfusion into efferent arterioles,greater than 25%
same,TGF response to 7-NI before Tempol,"SHR rats; 7-NI 10^−4 M into macula densa, before Tempol",no significant TGF response
"NC[C@H](O)c1ccc(O)c(O)c1 [Norepinephrine, norepinephrine]",Increase in MAP,"SHR [4]; SHR, norepinephrine 31 nmol·kg^−1·min^−1",15%
same,MAP after norepinephrine infusion,"SHR [4]; SHR, norepinephrine 31 nmol·kg^−1·min^−1, from 164±4",188±7 mm Hg
same,Change in MAP at 50 min (time control),SHR [4]; norepinephrine infusion,2.0±0.0%
COC(=O)[C@@H](N)CCCNC(=N)N[N+](=O)[O-] [L-NAME],Increase in MAP,"SHR [4]; SHR, twenty minutes of L-NAME infusion alone",18%
same,MAP after L-NAME infusion alone,"SHR [4]; SHR, twenty minutes of L-NAME infusion, from 158±11",187±8 mm Hg
same,Change in MAP at 50 min (time control),SHR [4]; L-NAME infusion,0.3±3.3%
